{
  "source": "ChEMBL document CHEMBL5512609",
  "about": "“HDAC-targeting epigenetic modulators for cancer immunotherapy” (Eur J Med Chem, 2024)",
  "key": {"[1]": {"target": "T1, Protein cereblon/Protein deacetylase HDAC6 (Homo sapiens, UniProt Q9UBN7+Q96SW2)", "assay": "PROTAC activity at CRBN/HDAC6 in human MM1.S cells assessed as induction of degradation of HDAC6 by measuring maximum efficacy relative to control", "format": "cell-based"}, "[2]": {"target": "T1, Protein cereblon/Protein deacetylase HDAC6", "assay": "PROTAC activity at CRBN/HDAC6 in human MM1.S cells assessed as induction of degradation of HDAC6", "format": "cell-based"}, "[3]": {"target": "Programmed cell death protein 1/Programmed cell death 1 ligand 1 (Homo sapiens, UniProt Q15116+Q9NZQ7)", "sequence (Q15116 whole entry)": "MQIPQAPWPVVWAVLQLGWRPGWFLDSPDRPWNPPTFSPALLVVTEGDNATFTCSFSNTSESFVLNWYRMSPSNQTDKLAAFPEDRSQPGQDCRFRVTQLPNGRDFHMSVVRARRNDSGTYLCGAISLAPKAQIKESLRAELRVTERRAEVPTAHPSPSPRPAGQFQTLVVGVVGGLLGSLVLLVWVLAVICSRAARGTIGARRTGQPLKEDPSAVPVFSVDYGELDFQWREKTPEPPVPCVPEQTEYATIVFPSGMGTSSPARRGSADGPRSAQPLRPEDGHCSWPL", "sequence (Q9NZQ7 whole entry)": "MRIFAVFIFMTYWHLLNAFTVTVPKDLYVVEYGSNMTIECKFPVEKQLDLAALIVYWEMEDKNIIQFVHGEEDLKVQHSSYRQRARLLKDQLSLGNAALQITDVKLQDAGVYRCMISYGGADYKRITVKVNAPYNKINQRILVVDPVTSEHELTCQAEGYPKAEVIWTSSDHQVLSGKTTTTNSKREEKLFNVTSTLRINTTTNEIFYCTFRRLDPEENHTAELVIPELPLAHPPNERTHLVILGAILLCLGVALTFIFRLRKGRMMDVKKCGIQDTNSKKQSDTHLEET", "assay": "Inhibition of PD-1/PDL1 interaction (unknown origin) in by HTRF assay", "format": "protein-complex assay"}, "MDA-MB-468": {"test_system": "MDA-MB-468", "assay": "Antiproliferative activity against human MDA-MB-468 cells", "format": "functional, cell-based"}, "[4]": {"target": "T2, von Hippel-Lindau disease tumor suppressor/Histone deacetylase 3 (Homo sapiens, UniProt O15379+P40337)", "T2 sequence (O15379 whole entry)": "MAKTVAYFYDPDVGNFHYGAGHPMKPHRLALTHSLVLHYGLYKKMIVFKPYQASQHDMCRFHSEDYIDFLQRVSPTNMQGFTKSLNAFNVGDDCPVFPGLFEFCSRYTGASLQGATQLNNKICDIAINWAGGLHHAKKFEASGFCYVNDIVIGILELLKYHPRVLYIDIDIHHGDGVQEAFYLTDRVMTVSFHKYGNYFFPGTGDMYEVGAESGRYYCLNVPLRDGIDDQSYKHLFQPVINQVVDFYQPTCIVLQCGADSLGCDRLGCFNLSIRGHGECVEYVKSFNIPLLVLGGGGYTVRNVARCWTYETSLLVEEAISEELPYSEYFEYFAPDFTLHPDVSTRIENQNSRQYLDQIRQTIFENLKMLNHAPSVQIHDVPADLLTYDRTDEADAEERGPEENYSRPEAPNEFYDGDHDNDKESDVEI", "T2 sequence (P40337 whole entry)": "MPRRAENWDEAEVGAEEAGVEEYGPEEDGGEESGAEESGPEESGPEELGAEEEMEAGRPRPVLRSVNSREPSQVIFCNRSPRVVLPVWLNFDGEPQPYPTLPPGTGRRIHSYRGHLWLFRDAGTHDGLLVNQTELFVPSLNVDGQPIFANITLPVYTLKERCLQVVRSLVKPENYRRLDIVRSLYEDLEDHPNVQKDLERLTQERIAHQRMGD", "assay": "Protac activity at VHL/HDAC3 in human MDA-MB-468 cells assessed as HDAC3 degradation measured after 14 hrs by Western blot analysis", "format": "cell-based"}, "[5]": {"target": "T1, Protein cereblon/Protein deacetylase HDAC6", "assay": "PROTAC activity at CRBN/HDAC6 in human MDA-MB-231 cells assessed as HDAC6 degradation incubated for 18 hrs by immunoblot analysis", "format": "cell-based"}, "[6]": {"target": "T1, Protein cereblon/Protein deacetylase HDAC6", "assay": "PROTAC activity at CRBN/HDAC6 in human HUVEC cells assessed as HDAC6 degradation incubated for 18 hrs by immunoblot analysis", "format": "cell-based"}, "[7]": {"target": "T1, Protein cereblon/Protein deacetylase HDAC6", "assay": "PROTAC activity at CRBN/HDAC6 in human MM1.S cells assessed as HDAC6 degradation by measuring maximum efficacy incubated for 18 hrs by immunoblot analysis relative to control", "format": "cell-based"}, "[8]": {"target": "T1, Protein cereblon/Protein deacetylase HDAC6", "assay": "PROTAC activity at CRBN/HDAC6 in human MINO cells assessed as HDAC6 degradation incubated for 18 hrs by immunoblot analysis", "format": "cell-based"}, "[9]": {"target": "T1, Protein cereblon/Protein deacetylase HDAC6", "assay": "PROTAC activity at CRBN/HDAC6 in human JeKo-1 cells assessed as HDAC6 degradation incubated for 18 hrs by immunoblot analysis", "format": "cell-based"}, "[10]": {"target": "T1, Protein cereblon/Protein deacetylase HDAC6", "assay": "PROTAC activity at CRBN/HDAC6 in human MM1.S cells assessed as HDAC6 degradation incubated for 18 hrs by immunoblot analysis", "format": "cell-based"}, "[11]": {"target": "T1, Protein cereblon/Protein deacetylase HDAC6", "assay": "PROTAC activity at CRBN/HDAC6 in human HL-60 cells assessed as HDAC6 degradation by measuring maximum efficacy relative to control", "format": "cell-based"}, "[12]": {"target": "T1, Protein cereblon/Protein deacetylase HDAC6", "assay": "PROTAC activity at CRBN/HDAC6 in human HL-60 cells assessed as HDAC6 degradation", "format": "cell-based"}, "[13]": {"target": "T1, Protein cereblon/Protein deacetylase HDAC6", "assay": "PROTAC activity at CRBN/HDAC6 in human MM1.S cells assessed as HDAC6 degradation", "format": "cell-based"}, "[14]": {"assay": "Inhibition of LSD1/HDAC1/CoREST complex (unknown origin) using Boc-(Ac)Lys-AMC as substrate measured after 20 mins by fluorescence based analysis", "design": "species or system Homo sapiens"}, "[15]": {"target": "T3, von Hippel-Lindau disease tumor suppressor/Histone deacetylase 2 (Homo sapiens, UniProt Q92769+P40337)", "assay": "PROTAC activity at VHL/HDAC2 in human HCT-116 cells assessed as degradation of HDAC2 incubated for 24 hrs by Western blot analysis", "format": "cell-based"}, "[16]": {"assay": "Inhibition of LSD1/HDAC3/CoREST complex (unknown origin) using Boc-(Ac)Lys-AMC as substrate measured after 20 mins by fluorescence based analysis", "design": "species or system Homo sapiens"}, "[17]": {"assay": "Inhibition of LSD1/HDAC2/CoREST complex (unknown origin) using Boc-(Ac)Lys-AMC as substrate measured after 20 mins by fluorescence based analysis", "design": "species or system Homo sapiens"}, "[18]": {"target": "T4, von Hippel-Lindau disease tumor suppressor/Histone deacetylase 1 (Homo sapiens, UniProt Q13547+P40337)", "assay": "PROTAC activity at VHL/HDAC1 in human HCT-116 cells assessed as degradation of HDAC1 incubated for 24 hrs by Western blot analysis", "format": "cell-based"}, "[19]": {"target": "T2, von Hippel-Lindau disease tumor suppressor/Histone deacetylase 3", "assay": "PROTAC activity at VHL/HDAC3 in human HCT-116 cells assessed as degradation of HDAC3 incubated for 24 hrs by Western blot analysis", "format": "cell-based"}, "[20]": {"target": "T3, von Hippel-Lindau disease tumor suppressor/Histone deacetylase 2", "assay": "PROTAC activity at VHL/HDAC2 in human HCT-116 cells assessed as degradation of HDAC2 by measuring maximum efficacy incubated for 24 hrs by immunoblot analysis relative to control", "format": "cell-based"}, "[21]": {"target": "T4, von Hippel-Lindau disease tumor suppressor/Histone deacetylase 1", "assay": "PROTAC activity at VHL/HDAC1 in human HCT-116 cells assessed as degradation of HDAC1 by measuring maximum efficacy incubated for 24 hrs by immunoblot analysis relative to control", "format": "cell-based"}, "[22]": {"target": "T4, von Hippel-Lindau disease tumor suppressor/Histone deacetylase 1", "assay": "PROTAC activity at VHL/HDAC1 in human HCT-116 cells assessed as degradation of HDAC1 incubated for 24 hrs by immunoblot analysis", "format": "cell-based"}, "[23]": {"target": "Protein cereblon/Histone deacetylase 8 (Homo sapiens, UniProt Q9BY41+Q96SW2)", "sequence (Q9BY41 whole entry)": "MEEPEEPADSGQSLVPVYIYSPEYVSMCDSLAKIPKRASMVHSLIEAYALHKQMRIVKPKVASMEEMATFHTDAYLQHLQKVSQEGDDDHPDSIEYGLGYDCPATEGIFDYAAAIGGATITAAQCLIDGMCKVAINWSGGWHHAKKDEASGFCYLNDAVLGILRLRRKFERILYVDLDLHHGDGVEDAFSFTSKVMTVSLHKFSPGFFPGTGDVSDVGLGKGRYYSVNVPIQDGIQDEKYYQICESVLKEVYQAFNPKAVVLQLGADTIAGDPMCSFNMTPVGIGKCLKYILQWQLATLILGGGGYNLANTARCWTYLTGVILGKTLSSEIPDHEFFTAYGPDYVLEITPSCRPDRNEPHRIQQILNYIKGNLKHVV", "sequence (Q96SW2 whole entry)": "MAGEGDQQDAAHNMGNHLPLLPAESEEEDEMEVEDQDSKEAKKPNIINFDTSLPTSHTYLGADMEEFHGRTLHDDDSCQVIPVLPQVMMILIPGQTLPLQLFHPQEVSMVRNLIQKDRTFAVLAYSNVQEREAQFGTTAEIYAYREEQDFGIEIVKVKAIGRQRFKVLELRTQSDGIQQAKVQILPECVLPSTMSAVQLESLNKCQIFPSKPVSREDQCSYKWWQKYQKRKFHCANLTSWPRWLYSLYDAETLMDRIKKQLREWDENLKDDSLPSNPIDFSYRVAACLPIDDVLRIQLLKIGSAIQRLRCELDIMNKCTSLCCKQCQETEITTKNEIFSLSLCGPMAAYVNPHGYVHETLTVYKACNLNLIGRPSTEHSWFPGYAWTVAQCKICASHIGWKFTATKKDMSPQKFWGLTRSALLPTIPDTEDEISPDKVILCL", "assay": "PROTAC activity at CRBN/HDAC8 in human Jurkat T cells assessed as induction of degradation of HDAC8 by Western blot analysis", "format": "cell-based"}},
  "note": "pIC50: −log10 of the molar value.",
  "data": [
    {"compound": "CCCCN(Cc1ccc(C(=O)NO)cc1)C(=O)Nc1ccc(NC(=O)CCCCCc2cn(CCOCCNc3cccc4c3C(=O)N(C3CCC(=O)NC3=O)C4=O)nn2)cc1", "note": "(stereo not drawn)", "values": [
      {"measurement": "Emax", "setting": "[1]", "result": 86, "unit": "%"},
      {"measurement": "DC50", "setting": "[2]", "result": 1.6, "unit": "nM"}
    ]},
    {"compound": "COc1cc(OCc2cccc(-c3ccccc3)c2C)cc(OC)c1CN(C)CCCC(=O)NO", "values": [
      {"measurement": "pIC50", "setting": "[3]", "result": 6.98}
    ]},
    {"compound": "Cc1c(COc2ccc(CNCCCCCC(=O)NO)c(F)c2)cccc1-c1ccccc1", "values": [
      {"measurement": "pIC50", "setting": "[3]", "result": 7.21}
    ]},
    {"compound": "CCCNNC(=O)c1ccc(-c2ccc(NC(=O)CCCCCCC(=O)N[C@H](C(=O)N3C[C@H](O)C[C@H]3C(=O)N[C@H](C)c3ccc(-c4scnc4C)cc3)C(C)(C)C)cc2)cc1", "values": [
      {"measurement": "pIC50", "setting": "MDA-MB-468", "result": 7.28},
      {"measurement": "DC50", "setting": "[4]", "result": 42, "unit": "nM"}
    ]},
    {"compound": "CCCCN(Cc1ccc(C(=O)NO)cc1)C(=O)Nc1ccc(OCCCCCCCn2cc(CCCCCNc3cccc4c3C(=O)N(C3CCC(=O)NC3=O)C4=O)nn2)cc1", "note": "(stereo not drawn)", "values": [
      {"measurement": "DC50", "setting": "[5]", "result": 3.2, "unit": "nM"},
      {"measurement": "DC50", "setting": "[6]", "result": 3.2, "unit": "nM"},
      {"measurement": "Emax", "setting": "[7]", "result": 86, "unit": "%"},
      {"measurement": "DC50", "setting": "[8]", "result": 3.2, "unit": "nM"},
      {"measurement": "DC50", "setting": "[9]", "result": 3.2, "unit": "nM"},
      {"measurement": "DC50", "setting": "[10]", "result": 1.6, "unit": "nM"}
    ]},
    {"compound": "Cc1c(COc2ccc(CNCCC(=O)NO)c(OCc3cccc(C#N)c3)c2)cccc1-c1ccccc1", "values": [
      {"measurement": "pIC50", "setting": "[3]", "result": 7.09}
    ]},
    {"compound": "Cc1nc2cc(NC(=O)CCCCCCCNC(=O)COc3cccc4c3C(=O)N(C3CCC(=O)NC3=O)C4=O)ccc2n1Cc1ccc(C(=O)NO)cc1F", "note": "(stereo not drawn)", "values": [
      {"measurement": "Emax", "setting": "[11]", "result": 92.2, "unit": "%"},
      {"measurement": "DC50", "setting": "[12]", "result": 19.4, "unit": "nM"},
      {"measurement": "DC50", "setting": "[13]", "result": 3.8, "unit": "nM"}
    ]},
    {"compound": "Cc1ncsc1-c1ccc(CNC(=O)[C@H]2C[C@H](O)CN2C(=O)[C@H](NC(=O)CCCCCCCCCCC(=O)Nc2ccc(C(=O)Nc3ccccc3N)cc2)C(C)(C)C)cc1", "values": [
      {"measurement": "pIC50", "setting": "[14]", "result": 4.77},
      {"measurement": "DC50", "setting": "[15]", "result": 1000, "unit": "nM"},
      {"measurement": "pIC50", "setting": "[16]", "result": 4.77},
      {"measurement": "pIC50", "setting": "[17]", "result": 4.77},
      {"measurement": "DC50", "setting": "[18]", "result": 1000, "unit": "nM"},
      {"measurement": "DC50", "setting": "[19]", "result": 1000, "unit": "nM"}
    ]},
    {"compound": "COc1cc(OCc2cccc(-c3ccccc3)c2C)cc(OC)c1CNCCCCCCC(=O)NO", "values": [
      {"measurement": "pIC50", "setting": "[3]", "result": 7.07}
    ]},
    {"compound": "Cc1ncsc1-c1ccc(CNC(=O)[C@H]2C[C@H](O)CN2C(=O)[C@H](NC(=O)CCn2cc(CCCOC(=O)NCc3ccc(C(=O)Nc4ccc(F)cc4N)cc3)nn2)C(C)(C)C)cc1", "values": [
      {"measurement": "Emax", "setting": "[20]", "result": 62, "unit": "%"},
      {"measurement": "Emax", "setting": "[21]", "result": 62, "unit": "%"},
      {"measurement": "DC50", "setting": "[22]", "result": 2840, "unit": "nM"}
    ]},
    {"compound": "Cc1c(COc2ccc(CNCCC(=O)NO)c(F)c2)cccc1-c1ccccc1", "values": [
      {"measurement": "pIC50", "setting": "[3]", "result": 6.92}
    ]},
    {"compound": "COc1cc(C(=O)NO)ccc1NCc1ccc(OCc2cn(CCCCCC(=O)Nc3cccc4c3C(=O)N(C3CCC(=O)NC3=O)C4=O)nn2)cc1", "note": "(stereo not drawn)", "values": [
      {"measurement": "DC50", "setting": "[23]", "result": 250, "unit": "nM"}
    ]}
  ]
}
